The source of these data is patent EP4741392A1, “1H-PYRAZOLO[4,3-C]PYRIDINE COMPOUND, AND COMPOSITION THEREOF AND USE THEREOF” (Shenzhen TargetRx Co., Ltd., priority 2023, dated 2025).

As a reminder, the IC50 is the concentration that gives 50% inhibition.

Holding throughout (assay): Kinase activity inhibition assay (HTRF TK Kit), selectivity
Common to all, as to assay type: biochemical
On the technique in general: In TR-FRET formats the signal depends on donor and acceptor labels being close together.

The target of one experiment is T1, EGFR (Homo sapiens, UniProt P00533).
T1 construct: purchased Carna 08-115
T1 sequence (P00533 669-1210 limits assumed): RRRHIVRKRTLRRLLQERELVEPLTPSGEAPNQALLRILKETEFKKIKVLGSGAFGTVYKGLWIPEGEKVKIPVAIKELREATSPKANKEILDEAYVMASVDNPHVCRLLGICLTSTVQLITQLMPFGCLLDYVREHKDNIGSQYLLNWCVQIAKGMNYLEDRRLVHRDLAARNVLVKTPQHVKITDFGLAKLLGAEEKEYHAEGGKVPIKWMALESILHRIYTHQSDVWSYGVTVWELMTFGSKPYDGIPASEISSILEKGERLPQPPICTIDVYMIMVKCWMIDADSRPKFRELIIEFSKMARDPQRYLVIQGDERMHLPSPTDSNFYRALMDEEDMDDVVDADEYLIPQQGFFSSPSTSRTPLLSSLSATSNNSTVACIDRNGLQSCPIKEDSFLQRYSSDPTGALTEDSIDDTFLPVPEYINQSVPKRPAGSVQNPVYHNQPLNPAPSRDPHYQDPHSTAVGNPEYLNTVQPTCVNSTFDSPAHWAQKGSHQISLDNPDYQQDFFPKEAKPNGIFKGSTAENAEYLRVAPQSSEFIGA
From the text: (§1) In this assay, the HTRF TK Kit (Catalog No. 62TK0PEC) provided by Cisbio was used to detect the inhibitory activity of compounds on BTK kinase, BTK T474I kinase and BTK C481 S kinase and the selectivity of compounds relative to EGFR, ITK and TEC kinases.
(§2) Reagents and consumables: BTK kinase (Invitrogen, Catalog No. PV3587), BTK C481S (Carna, Product No. 08-547), BTK T474I(SignalChem Product No. B10-12HH), ITK (Cama, Product No. 08-181), EGFR (Cama, Product No. 08-115), TEC (Carna, Product No. 08-182), HTRF-TK kit (Cisbio, Product No. 62TK0PEC), MgCl2 (Sigma, Product No. M1028), MnCl2 (Sigma, Product No. M1787), DTT (Sigma, Product No. D0632), ATP (Sigma, Product No. A7699-1g), DMSO (Sigma, Product No. D2650), 384-well plate (PE, Product No. 6008280).
(§3) The entire operation steps were carried out on ice, and the total reaction volume was 10µL. A compound (4µL), substrate and ATP (4µL), and kinase (2µL) were added in sequence to a 384-well plate, and the plate was shaken for 30 seconds. The mixture was reacted at room temperature for an appropriate time, and then the detection reagent was added. The resulting mixture was reacted at room temperature for 1 hour, and then the plate was assayed with a microplate reader. The specific steps were as follows: • a) a 1 × kinase buffer solution required for the kinase assay was calculated according to the amount of the test compound, and prepared as needed; • b) 2.5 × working concentration of a compound was prepared, 100-fold gradient concentration solutions of a compound were diluted by 40 × to the desired concentration, respectively, mixed well, and added to each well at 4 µL per well; • c) 5 × working concentration of the substrate and ATP were prepared, mixed in a ratio of 1:1 before being added to the 384-well plate, and added to each well at 4 µL per well; • d) 5 × working concentration of a kinase was prepared, 2 µL of which was added to each well; • e) the plate was shaken on a microplate shaker for 30 seconds, sealed with a sealing membrane, and the mixture was reacted at room temperature for an appropriate time; • f) 4 × working concentration of streptavidin XL-665 and TK antibody-cryptate compound were prepared, mixed in a ratio of 1:1 before being added to the 384-well plate, and added to each well at 10 µL per well; • g) the mixture was reacted at room temperature for 1 hour, and then the plate was read; • h) the wells with only substrate, ATP and 1% DMSO added but no kinase were blank control wells, and the wells with only substrate, ATP, 1% DMSO and kinase were positive control wells.
(§4) Readings: The values of 620 nm (cryptate) and 665 nm (XL665) were read with a BioTek Synerg Neo2 microplate reader, the ratio of 665/620 for each well was calculated, and the data were exported.
(§5) Data analysis: IC50 was calculated using GraphPad Prism 7.0 software.
(§6) The IC50 (half-maximal inhibitory concentration) of the compound was obtained using the following nonlinear fitting formula: Y = Bottom + (Top−Bottom)/(1+10^(∧)((LogIC50−X)*HillSlope)) [formula] • X: Log value of the compound concentration • Y: Inhibition rate (% inhibition) • Top: Maximum response • Bottom: Baseline response • HillSlope: Slope of the curve
(§7) The formula for calculating kinase inhibition rate (inhibition rate %) was: [formula]

A further experiment has as its target T2, ITK (Homo sapiens, UniProt Q08881).
T2 construct: purchased Carna 08-181
T2 sequence (Q08881 1-620): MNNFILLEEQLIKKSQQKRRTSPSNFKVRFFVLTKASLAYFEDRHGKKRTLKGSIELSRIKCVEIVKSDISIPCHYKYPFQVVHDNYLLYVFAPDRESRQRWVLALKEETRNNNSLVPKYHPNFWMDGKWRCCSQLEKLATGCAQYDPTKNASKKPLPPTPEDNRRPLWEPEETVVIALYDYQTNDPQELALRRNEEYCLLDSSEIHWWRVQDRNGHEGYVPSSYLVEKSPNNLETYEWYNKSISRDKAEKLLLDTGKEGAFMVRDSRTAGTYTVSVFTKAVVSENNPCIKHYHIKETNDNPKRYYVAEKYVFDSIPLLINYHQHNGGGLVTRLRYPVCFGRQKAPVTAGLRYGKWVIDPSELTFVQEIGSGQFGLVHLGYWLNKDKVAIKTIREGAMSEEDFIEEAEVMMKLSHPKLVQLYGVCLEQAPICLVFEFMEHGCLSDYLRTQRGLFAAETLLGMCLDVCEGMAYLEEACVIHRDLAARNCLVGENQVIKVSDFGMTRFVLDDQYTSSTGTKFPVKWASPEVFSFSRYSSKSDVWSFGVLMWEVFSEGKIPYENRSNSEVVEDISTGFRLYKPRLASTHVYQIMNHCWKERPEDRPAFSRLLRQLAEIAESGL
Source text: as §1, §2, §3, §4, §5, §6, §7

In a further experiment the target is T3, TEC (Homo sapiens, UniProt P42680).
T3 construct: purchased Carna 08-182
T3 sequence (P42680 1-631): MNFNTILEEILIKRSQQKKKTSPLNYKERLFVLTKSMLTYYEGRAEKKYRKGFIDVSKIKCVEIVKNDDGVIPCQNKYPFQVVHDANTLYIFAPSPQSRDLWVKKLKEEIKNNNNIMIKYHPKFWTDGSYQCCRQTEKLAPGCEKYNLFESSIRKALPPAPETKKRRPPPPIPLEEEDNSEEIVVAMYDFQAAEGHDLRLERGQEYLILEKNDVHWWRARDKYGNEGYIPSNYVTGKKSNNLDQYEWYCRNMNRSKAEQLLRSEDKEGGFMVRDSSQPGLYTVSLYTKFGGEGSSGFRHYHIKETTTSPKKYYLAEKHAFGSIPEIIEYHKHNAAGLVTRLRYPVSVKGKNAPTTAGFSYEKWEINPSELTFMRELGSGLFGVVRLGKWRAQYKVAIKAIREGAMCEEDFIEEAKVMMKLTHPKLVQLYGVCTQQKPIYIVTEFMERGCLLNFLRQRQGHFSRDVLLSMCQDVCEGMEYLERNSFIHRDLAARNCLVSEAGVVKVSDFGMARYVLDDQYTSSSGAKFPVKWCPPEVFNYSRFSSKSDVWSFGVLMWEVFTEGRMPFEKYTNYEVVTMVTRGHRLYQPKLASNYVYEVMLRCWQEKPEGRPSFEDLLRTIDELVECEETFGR
Source text: as §1, §2, §3, §4, §5, §6, §7

For `COc1ccc(F)cc1C(=O)NCc1ccc(-c2nc(C(C)C(F)(F)F)cc3[nH]nc(N)c23)cc1` (single isomer, unassigned) [Example 2, N-(4-(3-amino-6-(1,1,1-trifluoropropan-2-yl)-1H-pyrazolo[4,3-c]pyridin-4-yl)benzyl)-5-fluoro-2-methoxybenzamide], the IC50 was 50 to 500 nM at EGFR, over 500 nM at ITK and 50 to 500 nM at TEC.
On to `COc1ccc(F)cc1C(=O)NCc1ccc(-c2nc(C(C)C(F)(F)F)cc3[nH]nc(N)c23)cc1` (single isomer, unassigned) [Example 3, N-(4-(3-amino-6-(1,1,1-trifluoropropan-2-yl)-1H-pyrazolo[4,3-c]pyridin-4-yl)benzyl)-5-fluoro-2-methoxybenzamide], for which the IC50 was over 500 nM at EGFR, over 500 nM at ITK and 50 to 500 nM on TEC.
As for `COc1ccc(F)cc1C(=O)NCc1ccc(-c2nc(C(C)C(F)(F)F)c(-c3ccn(C)n3)c3[nH]nc(N)c23)cc1` (single isomer, unassigned) [Example 6-1, N-(4-(3-amino-7-(1-methyl-1H-pyrazol-3-yl)-6-(1,1,1-trifluoropropan-2-yl)-1H-pyrazolo[4,3-c]pyridin-4-yl)benzyl)-5-fluoro-2-methoxybenzamide], the results for the IC50 on EGFR, on ITK and at TEC were over 500 nM, over 500 nM and 50 to 500 nM, respectively.
`COc1ccc(F)cc1C(=O)NCc1ccc(-c2nc(C(C)C(F)(F)F)c(-c3ccn(C)n3)c3[nH]nc(N)c23)cc1` (single isomer, unassigned) [Example 6-2, N-(4-(3-amino-7-(1-methyl-1H-pyrazol-3-yl)-6-(1,1,1-trifluoropropan-2-yl)-1H-pyrazolo[4,3-c]pyridin-4-yl)benzyl)-5-fluoro-2-methoxybenzamide]: the values for the IC50 on EGFR, at ITK and on TEC were 50 to 500 nM, over 500 nM and 5 to 50 nM, respectively.
With `COc1ccc(F)cc1C(=O)NCc1ccc(-c2nc(C(C)C(F)(F)F)c(-c3ncccn3)c3[nH]nc(N)c23)cc1` (single isomer, unassigned) [Example 7-1, N-(4-(3-amino-7-(pyrimidin-2-yl)-6-(1,1,1-trifluoropropan-2-yl)-1H-pyrazolo[4,3-c]pyridin-4-yl)benzyl)-5-fluoro-2-methoxybenzamide], the IC50 on EGFR was over 500 nM; at ITK it was over 500 nM; on TEC it was 5 to 50 nM.
`COc1ccc(F)cc1C(=O)NCc1ccc(-c2nc(C(C)C(F)(F)F)c(-c3ncccn3)c3[nH]nc(N)c23)cc1` (single isomer, unassigned) [Example 7-2, N-(4-(3-amino-7-(pyrimidin-2-yl)-6-(1,1,1-trifluoropropan-2-yl)-1H-pyrazolo[4,3-c]pyridin-4-yl)benzyl)-5-fluoro-2-methoxybenzamide]: the IC50 at EGFR is over 500 nM; at ITK, over 500 nM; on TEC, 50 to 500 nM.
Take `COc1ccc(F)cc1C(=O)NCc1ccc(-c2nc(C(C)C(F)(F)F)cc3[nH]nc(N)c23)cc1` (stereo not drawn) [Example 1, N-(4-(3-amino-6-(1,1,1-trifluoropropan-2-yl)-1H-pyrazolo[4,3-c]pyridin-4-yl)benzyl)-5-fluoro-2-methoxybenzamide]: the IC50 at EGFR is 50 to 500 nM; on ITK it was over 500 nM; at TEC, over 500 nM.
Consider `COc1ccc(F)cc1C(=O)NCc1ccc(-c2nc(C(C)C(F)(F)F)c(-c3ccn(C)n3)c3[nH]nc(N)c23)cc1` (stereo not drawn) [Example 6, N-(4-(3-amino-7-(1-methyl-1H-pyrazol-3-yl)-6-(1,1,1-trifluoropropan-2-yl)-1H-pyrazolo[4,3-c]pyridin-4-yl)benzyl)-5-fluoro-2-methoxybenzamide], for which the IC50 on EGFR was 50 to 500 nM; on ITK, over 500 nM; at TEC it was 5 to 50 nM.
Regarding `COc1ccc(F)cc1C(=O)NCc1ccc(-c2nc(C(C)C(F)(F)F)c(-c3ncccn3)c3[nH]nc(N)c23)cc1` (stereo not drawn) [Example 7, N-(4-(3-amino-7-(pyrimidin-2-yl)-6-(1,1,1-trifluoropropan-2-yl)-1H-pyrazolo[4,3-c]pyridin-4-yl)benzyl)-5-fluoro-2-methoxybenzamide], the IC50 was 50 to 500 nM at EGFR, over 500 nM at ITK and 5 to 50 nM at TEC.
Consider `COc1ccc(F)cc1C(=O)NCc1ccc(-c2nc(C(C)C(F)(F)F)c(-c3cc(C)[nH]n3)c3[nH]nc(N)c23)cc1` (stereo not drawn) [Example 9, N-(4-(3-amino-7-(5-methyl-1H-pyrazol-3-yl)-6-(1,1,1-trifluoropropan-2-yl)-1H-pyrazolo[4,3-c]pyridin-4-yl)benzyl)-5-fluoro-2-methoxybenzamide], for which the half-inhibitory concentration (IC50) was 50 to 500 nM on EGFR, over 500 nM at ITK and 50 to 500 nM on TEC.
As to `COc1ccc(F)cc1C(=O)NCc1ccc(-c2ncc(-c3ccccn3)c3[nH]nc(N)c23)cc1` [Example 15, N-(4-(3-amino-7-(pyridin-2-yl)-1H-pyrazolo[4,3-c]pyridin-4-yl)benzyl)-5-fluoro-2-methoxybenzamide], the IC50 at EGFR is 50 to 500 nM; at ITK, over 500 nM; at TEC, 5 to 50 nM.
In the case of `COc1ccc(F)cc1C(=O)NCc1ccc(-c2ncc(-c3ncccn3)c3[nH]nc(N)c23)cc1` [Example 17, N-(4-(3-amino-7-(pyrimidin-2-yl)-1H-pyrazolo[4,3-c]pyridin-4-yl)benzyl)-5-fluoro-2-methoxybenzamide], the IC50 at EGFR was over 500 nM; on ITK it was over 500 nM; on TEC, 5 to 50 nM.
For `COc1ccc(F)cc1C(=O)NCc1ccc(-c2ncc(-c3cnccn3)c3[nH]nc(N)c23)cc1` [Example 18, N-(4-(3-amino-7-(pyrazin-2-yl)-1H-pyrazolo[4,3-c]pyridin-4-yl)benzyl)-5-fluoro-2-methoxybenzamide], the IC50 on EGFR is over 500 nM; at ITK, over 500 nM; at TEC, 50 to 500 nM.
